How the values were obtained:
Assay type in all cases: cell-based
[1] = tested on: FU-OV-1 cells (human ovarian carcinoma cells); assay: Proliferation assay (alamarBlue) with FU-OV-1 cells
Excerpt: (§1) The antiproliferative activities of compounds falling under formula (Ia), (Ib) and (Ic), respectively, were investigated on cells or cell lines originating from a disorder of the haematopoietic system, including the myeloid cell compartment and the lymphoid cell compartment (T-cells and B-cells), the neuroendocrine system, the cervix, the breast, the ovaries, the lung, the gastrointestinal tract, and the mucosal epithelium, as well as from the skin epithelium and from the muscle. To this end, HL-60 cells, NB-4 cells, HH cells, RPMI-8402 cells, TANOUE cells, TT cells, HeLa cells, MDA-MB-231 cells, FU-OV-1 cells, LOU-NH91 cells, 23132/87 cells, CAL-27 cells, BHY cells, SCC-25 cells, A-431 cells, human primary epidermal keratinocytes (HPEK), and C2C12 cells were seeded into 96-well plates suitable for fluorescence assays (CORNING #3598) at following initial cell numbers: 1000 cells per well for HL-60; 1000 cells per well for NB-4; 5000 cells per well for HH; 5000 cells per well for RPMI-8402; 1500 cells per well for TANOUE; 9000 cells per well for TT; 2000 cells per well for HeLa; 3000 cells per well for MDA-MB-231; 3000 cells per well for FU-OV-1; 4000 cells per well for LOU-NH91; 2000 cells per well for 23132/87; 2000 cells per well for CAL-27; 1500 cells per well for BHY; 1500 cells per well for SCC-25; 700 cells per well for A-431; 1000 cells per well for HPEK; 500 cells per well for C2C12. The cells were treated with compounds at indicated final concentrations (diluted from the 1000× stock-solutions in DMSO to a final DMSO concentration of 0.1% v/v in H2O (Water For Injection, WFI, Fisherscientific #10378939)) or with the empty carrier DMSO at 0.1% v/v as control for 5 days. At day 5 after starting the treatments the cells were subjected to the alamarBlue® Proliferation Assay (Bio-Rad Serotec GmbH, BUF012B) according to the protocol of the manufacturer. The readout was taken with a multi-well plate-reader in the fluorescence mode with applying a filter for excitation at 560 nm (band width 10 nm) and for emission at 590 nm (band width 10 nm). Control treatments for growth inhibition with commercial compounds such as Methotrexate (MTREX) and Resveratrol (RES) were included on every plate. Some of the test compounds of the present invention were obtained and applied as their salts. According cases are indicated in the column “Specification” in Table 55 to Table 92 and by their sum formula in Table 93.
(§2) The assays were performed in duplicate or more replicates of independent single experiments each containing a six-fold replicate for every condition. For every individual plate, the measured fluorescence intensity values of the conditions with compound treatment were normalized against the corresponding equally weighted arithmetic mean of the fluorescence intensity values of the six DMSO treated control wells in order to obtain the relative values to a baseline level of 1.0.
(§3) Two independent outlier analyses were performed according to the methods by Peirce and Chauvenet (Ross, Journal of Engineering Technology 2003, 1-12). Outliers confirmed by at least one of the methods were excluded from the calculations but not more than one value out of six per compound within a single experiment. The weighted arithmetic mean (here abbreviated as AVEw) for each compound was calculated from the normalized values over all independent replicates of the single experiments comprising the six replicates each. The corresponding standard deviation for the weighted arithmetic mean was calculated according to the method described by Bronstein et al. (Bronstein, Semendjajew, Musiol, Müihlig, Taschenbuch der Mathematik, 5th edition 2001 (German), publisher: Verlag Harri Deutsch, Frankfurt am Main and Thun) and was combined with the Gauß' error propagation associated with the performed calculation for the normalization. The resulting standard deviation is herein referred to as “combined standard deviation”. […]

[2] = tested on: TT cells (human medullary thyroid carcinoma cells); assay: Proliferation assay (alamarBlue) with TT cells
Excerpt: as §1, §2, §3

[3] = tested on: TANOUE cells (human B cell leukemia cells); assay: Proliferation assay (alamarBlue) with TANOUE cells
Excerpt: as §1, §2, §3

[4] = tested on: A-431 cells (human epidermoid squamous cell carcinoma cells); assay: Proliferation assay (alamarBlue) with A-431 cells; settings: for Activity Range (weighted arithmetic mean AVEw of normalized fluorescence intensity, relative to DMSO basis level 1.0): 20 μM; for Activity Range (weighted arithmetic mean of normalized fluorescence intensity, relative to DMSO basis level 1.0): control at 40 μM
Excerpt: as §1, §2, §3

[5] = tested on: RPMI-8402 cells (human T cell acute lymphoblastic leukemia cells); assay: Proliferation assay (alamarBlue) with RPMI-8402 cells
Excerpt: as §1, §2, §3

[6] = tested on: HeLa cells (human cervical adenocarcinoma cells); assay: Proliferation assay (alamarBlue) with HeLa cells
Excerpt: as §1, §2, §3

Oc1ccc(C=Cc2cc(O)cc(O)c2)cc1 [RES, Resveratrol]
Activity Range: weighted arithmetic mean (AVEw) of normalized fluorescence intensity relative to DMSO basis level 1.0 ([1]; compound at 20 μM, Table 71 (novel compounds)): 0.7 ± 0.0 | Activity Range: weighted arithmetic mean (AVEw) of normalized fluorescence intensity relative to DMSO basis level 1.0 ([1]; compound at 20 μM, Table 72 (compounds of PCT/EP2018/054686)): 0.7 ± 0.0 | Activity Range: weighted arithmetic mean (AVEw) of normalized fluorescence intensity relative to DMSO basis level 1.0 ([1]; control at 40 μM, Table 71): 0.4 ± 0.0 | Activity Range: weighted arithmetic mean (AVEw) of normalized fluorescence intensity relative to DMSO basis level 1.0 ([1]; control at 40 μM, Table 72): 0.4 ± 0.0 | Activity Range: weighted arithmetic mean (AVEw) of normalized fluorescence intensity relative to DMSO basis level 1.0 ([2]; compound at 20 μM, Table 65 (novel compounds)): 0.9 ± 0.0 | Activity Range: weighted arithmetic mean (AVEw) of normalized fluorescence intensity relative to DMSO basis level 1.0 ([2]; compound at 20 μM, Table 66 (compounds of PCT/EP2018/054686)): 0.9 ± 0.0 | Activity Range: weighted arithmetic mean (AVEw) of normalized fluorescence intensity relative to DMSO basis level 1.0 ([2]; control at 40 μM, Table 65): 0.7 ± 0.0 | Activity Range: weighted arithmetic mean (AVEw) of normalized fluorescence intensity relative to DMSO basis level 1.0 ([2]; control at 40 μM, Table 66): 0.7 ± 0.0 | activity at 20 µM ([3]; Homo sapiens, B-cell, compound at 20 μM, Table 63 (novel compounds), read-out: Activity Range: weighted arithmetic mean (AVEw) of normalized fluorescence intensity relative to DMSO basis level 1.0): 10% | activity at 40 µM ([3]; Homo sapiens, B-cell, control at 40 μM, Table 63, read-out: Activity Range: weighted arithmetic mean (AVEw) of normalized fluorescence intensity relative to DMSO basis level 1.0): 0% | Activity Range: weighted arithmetic mean (AVEw) of normalized fluorescence intensity relative to DMSO basis level 1.0 ([3]; compound at 20 μM, Table 64 (compounds of PCT/EP2018/054686)): 0.1 ± 0.0 | Activity Range: weighted arithmetic mean (AVEw) of normalized fluorescence intensity relative to DMSO basis level 1.0 ([3]; control at 40 μM, Table 64): 0.0 ± 0.0 | Activity Range (weighted arithmetic mean AVEw of normalized fluorescence intensity, relative to DMSO basis level 1.0) ([4]; Table 84 (novel compounds)): 0.6 ± 0.0 | Activity Range (weighted arithmetic mean AVEw of normalized fluorescence intensity, relative to DMSO basis level 1.0) ([4]; Table 85 (compounds disclosed in PCT/EP2018/054686)): 0.6 ± 0.0 | Activity Range (weighted arithmetic mean of normalized fluorescence intensity, relative to DMSO basis level 1.0) ([4]; Table 84): 0.2 ± 0.0 | Activity Range (weighted arithmetic mean of normalized fluorescence intensity, relative to DMSO basis level 1.0) ([4]; Table 85): 0.2 ± 0.0 | Activity Range: weighted arithmetic mean (AVEw) of normalized fluorescence intensity, proliferation assay with RPMI-8402 cells ([5]; 20 μM, relative to DMSO basis level 1.0, Table 61 (novel compounds)): 0.6 ± 0.0 | Activity Range: weighted arithmetic mean (AVEw) of normalized fluorescence intensity, proliferation assay with RPMI-8402 cells ([5]; 20 μM, relative to DMSO basis level 1.0, Table 62 (compounds disclosed in PCT/EP2018/054686)): 0.6 ± 0.0 | Activity Range: weighted arithmetic mean (AVEw) of normalized fluorescence intensity, proliferation assay with RPMI-8402 cells ([5]; control at 40 μM, relative to DMSO basis level 1.0, Table 61): 0.1 ± 0.0 | Activity Range: weighted arithmetic mean (AVEw) of normalized fluorescence intensity, proliferation assay with RPMI-8402 cells ([5]; control at 40 μM, relative to DMSO basis level 1.0, Table 62): 0.1 ± 0.0 | Activity Range: weighted arithmetic mean (AVEw) of normalized fluorescence intensity relative to DMSO basis level 1.0 ([6]; compound at 20 μM, Table 67 (novel compounds)): 0.9 ± 0.0 | Activity Range: weighted arithmetic mean (AVEw) of normalized fluorescence intensity relative to DMSO basis level 1.0 ([6]; compound at 20 μM, Table 68 (compounds of PCT/EP2018/054686)): 0.9 ± 0.0 | Activity Range: weighted arithmetic mean (AVEw) of normalized fluorescence intensity relative to DMSO basis level 1.0 ([6]; control at 40 μM, Table 67): 0.4 ± 0.1

From US20220354949A1, “NOVEL COMPOUNDS” (XENIOPRO GmbH, priority 2018, published 2022)
